Experimental data reported in patent US12011444B2, “N-substituted indole derivatives as PGE2 receptor modulators” (Idorsia Pharmaceuticals Ltd, priority 2015, dated 2024).
Where two headings read alike, the source gives them in different places.

Columns and labels:
EP4 = EP4 (Homo sapiens (Human), UniProt P35408); test: hEP4 cAMP assay (BT549 breast cancer cells, HTRF cAMP); format: cell-based; conditions: antagonistic activity; mean values where measured multiple times
Protocol: Plate is pre-incubated 45 minutes at room temperature. Subsequently, 2.5 microliters of PGE2 (final conc. 6 nM) are transferred into the assay plate. Plate is incubated 30 minutes at room temperature.

EP2 [1] = biological target: T1, EP2 (Homo sapiens (Human), UniProt P43116); test: cell-based;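 note: antagonism of PGE2-stimulated cAMP accumulation in SF295 human glioblastoma cells with endogenous EP2, cAMP read by HTRF, expressed relative to DMSO control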
EP2 [2] = biological target: T1, EP2

EP4, sequence (P35408 whole entry): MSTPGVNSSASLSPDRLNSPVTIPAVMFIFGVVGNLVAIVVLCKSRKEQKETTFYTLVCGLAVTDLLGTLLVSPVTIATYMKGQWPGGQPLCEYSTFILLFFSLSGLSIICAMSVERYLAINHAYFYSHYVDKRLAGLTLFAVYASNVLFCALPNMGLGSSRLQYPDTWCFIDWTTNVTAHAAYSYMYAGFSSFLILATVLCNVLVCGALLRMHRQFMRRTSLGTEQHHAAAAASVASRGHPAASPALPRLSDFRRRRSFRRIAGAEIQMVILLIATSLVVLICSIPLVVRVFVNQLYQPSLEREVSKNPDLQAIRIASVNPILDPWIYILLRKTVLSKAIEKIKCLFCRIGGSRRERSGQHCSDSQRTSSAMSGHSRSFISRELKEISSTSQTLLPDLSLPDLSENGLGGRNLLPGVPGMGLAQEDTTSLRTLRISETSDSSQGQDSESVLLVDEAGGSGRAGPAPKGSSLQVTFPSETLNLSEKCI
T1 sequence (P43116 whole entry): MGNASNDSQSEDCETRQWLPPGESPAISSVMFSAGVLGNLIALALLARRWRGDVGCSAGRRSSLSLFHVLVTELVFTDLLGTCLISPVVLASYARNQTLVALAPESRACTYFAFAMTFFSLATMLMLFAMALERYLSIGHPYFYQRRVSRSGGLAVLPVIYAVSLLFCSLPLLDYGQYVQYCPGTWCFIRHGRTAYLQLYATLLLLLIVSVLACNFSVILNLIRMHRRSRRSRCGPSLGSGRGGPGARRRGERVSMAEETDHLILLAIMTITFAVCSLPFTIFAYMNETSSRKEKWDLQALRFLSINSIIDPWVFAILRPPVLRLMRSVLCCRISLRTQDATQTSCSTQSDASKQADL

Row | IC50 (EP4) [nM] | IC50 (EP2 [1]) [nM] | IC50 (EP2 [2]) [nM] | SMILES
1 | 798 | 309 | – | CCOc1cc(-c2cc(NCC(C)n3c(C)cc4c(OC)ccc(F)c43)ncn2)ccc1C(=O)O (racemic) [Example 794, rac-2-Ethoxy-4-{6-[2-(7-fluoro-4-methoxy-2-methyl-indol-1-yl)-propylamino]-pyrimidin-4-yl}-benzoic acid]
2 | 306 | 85 | – | COc1ccc(F)c2c1cc(C)n2C(C)CNc1cc(-c2ccc(C(=O)O)c(CC(C)C)c2)ncn1 (racemic) [Example 795, rac-4-{6-[2-(7-Fluoro-4-methoxy-2-methyl-indol-1-yl)-propylamino]-pyrimidin-4-yl}-2-isobutyl-benzoic acid]
3 | 224 | 24 | – | COc1cccc2c1cc(C)n2CCNc1cc(-c2ccc3c(c2)C(CC(C)C)NC3=O)ncn1 (racemic) [compound 461]
4 | 75 | 17 | – | CCCC1NC(=O)c2ccc(-c3cc(NCCn4c(C)cc5c(OC)ccc(F)c54)ncn3)cc21 (racemic) [compound 465]
5 | 264 | 59 | – | Cc1ccc(F)c2c1cc(C)n2CCNc1cc(-c2ccc3c(c2)C(CC(C)C)NC3=O)ncn1 (racemic) [compound 468]
6 | 224 | 22 | – | COc1ccc(F)c2c1cc(C)n2CCNc1cc(-c2ccc3c(c2)C(CC(C)C)NC3=O)ncn1 (racemic) [compound 474]
7 | 511 | 149 | – | CCOc1cc(-c2cc(NCCn3c(C)cc4c(OC)ccc(F)c43)ncn2)ccc1C(O)C(F)(F)F (racemic) [compound 571]
8 | 240 | – | 16 | COc1cc(F)cc2c1cc(C)n2CCNc1cc(-c2ccc(-c3cc(C)no3)cc2)ncn1 [compound 715, [2-(6-Fluoro-4-methoxy-2-methyl-indol-1-yl)-ethyl]-{6-[4-(3-methyl-isoxazol-5-yl)-phenyl]-pyrimidin-4-yl}-amine]
9 | 510 | – | 12 | COc1ccc(F)c2c1cc(C)n2CCNc1cc(-c2ccc(-c3cc(C)no3)cc2)ncn1 [compound 716, [2-(7-Fluoro-4-methoxy-2-methyl-indol-1-yl)-ethyl]-{6-[4-(3-methyl-isoxazol-5-yl)-phenyl]-pyrimidin-4-yl}-amine]
10 | 527 | – | 242 | COc1cc(F)c(F)c2c1cc(C)n2CCNc1cc(-c2ccc(-c3cc(C)no3)cc2)ncn1 [compound 717]
11 | 389 | – | 223 | Cc1cnoc1-c1ccc(-c2cc(NCCn3c(C)cc4c(C)cc(F)c(F)c43)ncn2)cc1 [compound 719]
12 | 150 | – | 10 | COc1cccc2c1cc(C)n2CCNc1cc(-c2cc(Cl)c(C(=O)O)c(OCC(F)(F)F)c2)ncn1 [compound 720]
13 | 60 | – | 18 | COc1cc(F)cc2c1cc(C)n2CCNc1cc(-c2cc(Cl)c(C(=O)O)c(OCC(F)(F)F)c2)ncn1 [compound 721]
14 | 80 | – | 32 | COc1cc(F)c(F)c2c1cc(C)n2CCNc1cc(-c2cc(Cl)c(C(=O)O)c(OCC(F)(F)F)c2)ncn1 [compound 722]
15 | 287 | – | 37 | Cc1cc(F)cc2c1cc(C)n2CCNc1cc(-c2cc(Cl)c(C(=O)O)c(OCC(F)(F)F)c2)ncn1 [compound 723]
16 | 206 | – | 57 | Cc1cc(F)c(F)c2c1cc(C)n2CCNc1cc(-c2cc(Cl)c(C(=O)O)c(OCC(F)(F)F)c2)ncn1 [compound 724]
17 | 58 | – | 6 | COc1ccc(F)c2c1cc(C)n2CCNc1cc(-c2cc(Cl)c(C(=O)O)c(OCC(F)(F)F)c2)ncn1 [compound 725]
18 | 388 | – | 41 | COc1cc(F)cc2c1cc(C)n2CCNc1cc(-c2cccc(-n3cccn3)c2)ncn1 [compound 726]

Row | IC50 (EP4) [nM] | IC50 (EP2 [1]) [nM] | IC50 (EP2 [2]) [nM] | SMILES
19 | 238 | – | 34 | COc1cc(F)cc2c1cc(C)n2CCNc1cc(-c2ccc(-c3ccccn3)cc2)ncn1 [compound 727]
20 | 109 | – | 36 | COc1cc(F)cc2c1cc(C)n2CCNc1cc(-c2ccc3ccncc3c2)ncn1 [compound 728]
21 | 489 | – | 30 | Cc1cc(F)cc2c1cc(C)n2CCNc1cc(-c2ccc(-c3ccccn3)cc2)ncn1 [compound 730]
22 | 276 | – | 36 | Cc1cc(F)cc2c1cc(C)n2CCNc1cc(-c2ccc3ccncc3c2)ncn1 [compound 731]
23 | 341 | – | 41 | Cc1cc(F)cc2c1cc(C)n2CCNc1cc(-c2ccc3ncccc3c2)ncn1 [compound 732]
24 | 809 | – | 88 | Cc1cc(F)cc2c1cc(C)n2CCNc1cc(-c2ccc3nccnc3c2)ncn1 [compound 733]
25 | 465 | – | 95 | Cc1cnoc1-c1ccc(-c2cc(NCCn3c(C)cc4c(C)cc(F)cc43)ncn2)cc1 [compound 734]
26 | 620 | – | 93 | Cc1cnoc1-c1ccc(-c2cc(NCCn3c(C)cc4c(C)ccc(F)c43)ncn2)cc1 [compound 735]
27 | 399 | – | 39 | COc1cc(F)cc2c1cc(C)n2CCNc1cc(-c2ccc(-c3oncc3C)cc2)ncn1 [compound 736, [2-(6-Fluoro-4-methoxy-2-methyl-indol-1-yl)-ethyl]-{6-[4-(4-methyl-isoxazol-5-yl)-phenyl]-pyrimidin-4-yl}-amine]
28 | 156 | – | 25 | COc1ccc(F)c2c1cc(C)n2CCNc1cc(-c2ccc(-c3oncc3C)cc2)ncn1 [compound 737, [2-(7-Fluoro-4-methoxy-2-methyl-indol-1-yl)-ethyl]-{6-[4-(4-methyl-isoxazol-5-yl)-phenyl]-pyrimidin-4-yl}-amine]
29 | 177 | – | 63 | COc1cc(F)c(F)c2c1cc(C)n2CCNc1cc(-c2ccc(-c3oncc3C)cc2)ncn1 [compound 738]
30 | 450 | – | 43 | Cc1ccc(F)c2c1cc(C)n2CCNc1cc(-c2ccc3nn[nH]c3c2)ncn1 [compound 739, [6-(3H-Benzotriazol-5-yl)-pyrimidin-4-yl]-[2-(7-fluoro-2,4-dimethyl-indol-1-yl)-ethyl]-amine]
31 | 655 | – | 183 | Cc1ccc(F)c2c1cc(C)n2CCNc1cc(-c2ccc3c(c2)OCCO3)ncn1 [compound 740]
32 | 505 | – | 37 | Cc1ccc(F)c2c1cc(C)n2CCNc1cc(-c2ccc(-n3cncn3)cc2)ncn1 [compound 741, [2-(7-Fluoro-2,4-dimethyl-indol-1-yl)-ethyl]-[6-(4-[1,2,4]triazol-1-yl-phenyl)-pyrimidin-4-yl]-amine]
33 | 315 | – | 10 | COc1cc(F)cc2c1cc(C)n2CCNc1cc(-c2ccc(-c3ccno3)cc2)ncn1 [compound 743, [2-(6-Fluoro-4-methoxy-2-methyl-indol-1-yl)-ethyl]-[6-(4-isoxazol-5-yl-phenyl)-pyrimidin-4-yl]-amine]
34 | 251 | – | 8 | COc1ccc(F)c2c1cc(C)n2CCNc1cc(-c2ccc(-c3ccno3)cc2)ncn1 [compound 744, [2-(7-Fluoro-4-methoxy-2-methyl-indol-1-yl)-ethyl]-[6-(4-isoxazol-5-yl-phenyl)-pyrimidin-4-yl]-amine]
35 | 840 | – | 25 | COc1cc(F)c(F)c2c1cc(C)n2CCNc1cc(-c2ccc(-c3ccno3)cc2)ncn1 [compound 745, [2-(6,7-Difluoro-4-methoxy-2-methyl-indol-1-yl)-ethyl]-[6-(4-isoxazol-5-yl-phenyl)-pyrimidin-4-yl]-amine]
